Results on four molecules are retold here after PubChem BioAssay (NCI).

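Five compound concentrations were applied to cells in 96-well plates for 48 hours; endpoints were derived by simple linear interpolation of the resulting dose-response curve. GI50 marks 50% less growth. At the TGI there is no net growth.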

Test systems include DLD-1 colon; DMS 114 small cell lung; HOP-18 NSCLC; KM20L2 colon; LXFL 529 NSCLC; M19-MEL melanoma; RXF-631 renal; SNB-78 CNS; P388 leukemia; P388/ADR leukemia; SN12K1 renal.
What all share (experiment): NCI tumour cell line growth inhibition, 48 h

Turning to `O=C(OCN1C(=O)C2C3C=CC(C2C1=O)C1C2C(=O)N(COC(=O)C4CCCN4)C(=O)C2C31)C1CCCN1` (stereo unspecified), the TGI is > 69.7 µM in the assay on DLD-1 colon; > 60.6 µM with DMS 114 small cell lung; > 100 µM in the assay with HOP-18 NSCLC; > 100 µM in the assay with KM20L2 colon; > 100 µM in the assay with LXFL 529 NSCLC; > 100 µM in the assay with M19-MEL melanoma. Moreover, the TGI in the assay with RXF-631 renal and with SNB-78 CNS was > 100 µM throughout.

Consider `CN(C)CC(CC1=C(CC(CN(C)C)N(C)C)CCC1)N(C)C` (stereo unspecified), for which the TGI with DLD-1 colon, in the assay with DMS 114 small cell lung, in the assay with HOP-18 NSCLC, in the assay on KM20L2 colon, in the assay on M19-MEL melanoma and in the assay on P388 leukemia was > 100 µM throughout. The TGI in the assay with P388/ADR leukemia and with SN12K1 renal was > 100 µM throughout.

For the molecule `O=c1cccccc1[O-].O=c1cccccc1[O-].[O]=[U+2]=[O]`, the GI50 in the assay with HOP-18 NSCLC was 41 µM; with KM20L2 colon, 32 µM; with LXFL 529 NSCLC it was 28.6 µM; in the assay on SNB-78 CNS, 28.7 µM. In addition, the TGI was 97 µM with HOP-18 NSCLC, > 100 µM with KM20L2 colon, 82.6 µM in the assay on LXFL 529 NSCLC and 67.6 µM in the assay on SNB-78 CNS.

With `Nc1ccccc1S(=O)(=O)c1ccccc1`, the TGI with DLD-1 colon, in the assay with DMS 114 small cell lung, in the assay on HOP-18 NSCLC, in the assay on KM20L2 colon, with LXFL 529 NSCLC and in the assay on M19-MEL melanoma was > 100 µM throughout. In addition, in the assay with RXF-631 renal, the TGI was > 100 µM.
